Experimental data as given in US10590422B2, “Anticancer therapeutic intervention” (PHYZAT BIOPHARMACEUTICALS, LDA., priority 2017, dated 2020).

Assays:
LAT1 = target: T1, LAT1 (Homo sapiens, UniProt Q01650); assay: Sodium-independent [^14C]-L-leucine uptake in carcinoma cells, sensitivity to unlabelled L-leucine; type: cell-based; conditions: epithelial carcinoma cells; 3 mM unlabelled L-leucine; FIGS. 3A-3D
T1 construct: recognized the presence of LAT1 and ASCT2 in all cancer cell lines; endogenous in cells
T1 sequence (Q01650 whole entry): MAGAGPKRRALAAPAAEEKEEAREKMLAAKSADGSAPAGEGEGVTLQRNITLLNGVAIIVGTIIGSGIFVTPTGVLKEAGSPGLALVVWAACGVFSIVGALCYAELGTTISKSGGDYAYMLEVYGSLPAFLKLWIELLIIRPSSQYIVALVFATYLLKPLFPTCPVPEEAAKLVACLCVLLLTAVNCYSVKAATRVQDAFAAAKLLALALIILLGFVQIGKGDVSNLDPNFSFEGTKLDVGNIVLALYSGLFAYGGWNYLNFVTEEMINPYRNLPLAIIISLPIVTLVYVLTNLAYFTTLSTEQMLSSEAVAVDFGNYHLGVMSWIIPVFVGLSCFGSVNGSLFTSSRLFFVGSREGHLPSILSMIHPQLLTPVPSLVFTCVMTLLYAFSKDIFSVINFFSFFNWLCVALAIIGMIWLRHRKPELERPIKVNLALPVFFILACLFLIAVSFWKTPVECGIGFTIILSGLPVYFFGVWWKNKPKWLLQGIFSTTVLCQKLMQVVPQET
T1 sequence (P08195 102-630 partner): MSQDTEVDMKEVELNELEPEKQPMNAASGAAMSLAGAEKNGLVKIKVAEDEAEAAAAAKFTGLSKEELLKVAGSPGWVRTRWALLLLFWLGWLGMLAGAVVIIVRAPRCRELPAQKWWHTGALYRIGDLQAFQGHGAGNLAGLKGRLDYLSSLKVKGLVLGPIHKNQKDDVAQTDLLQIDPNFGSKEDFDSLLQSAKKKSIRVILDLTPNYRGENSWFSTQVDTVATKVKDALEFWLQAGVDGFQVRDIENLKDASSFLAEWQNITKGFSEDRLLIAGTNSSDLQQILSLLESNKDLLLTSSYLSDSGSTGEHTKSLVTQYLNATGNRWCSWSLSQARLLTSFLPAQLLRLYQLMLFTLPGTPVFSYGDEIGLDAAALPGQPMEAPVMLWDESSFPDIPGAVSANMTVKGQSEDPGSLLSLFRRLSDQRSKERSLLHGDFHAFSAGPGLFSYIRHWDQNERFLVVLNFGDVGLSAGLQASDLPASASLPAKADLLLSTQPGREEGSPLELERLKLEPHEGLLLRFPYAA
Protocol: (§1) Cells were plated in 24-well plates (Sarstedt, Germany) and grown until confluence was reached. On the day of the experiment, cell culture medium was aspirated and cells were preincubated for 15 min in Hanks' medium (NaCl 140 mM, KCl 5 mM, MgSO4.7H2O 0.8 mM, K2HPO4 0.33 mM, KH2PO4 0.44 mM, MgCl2.6H2O 1 mM, CaCl2) 0.025 mM, Tris-HCl 9.75 mM, pH 7.4). Uptake was initiated by addition of Hanks' medium with 0.25 μM [^14C]-L-leucine in the absence and in the presence of 3 mM unlabeled L-leucine. During preincubation and incubation cells were continuously shaken and maintained at 37° C. Uptake was terminated after 1 min by rapid removal of uptake solution by means of a vacuum pump connected to a Pasteur pipette, followed by a rapid wash with Hanks' medium. Subsequently, cells were solubilized in 0.1% vol/vol Triton X-100 (dissolved in 5 mM Tris-HCl, pH 7.4), and radioactivity was measured by liquid scintillation counting.

ASCT2 = target: T2, ASCT2 (Homo sapiens, UniProt Q15758); assay: Sodium-dependent [^14C]-L-alanine uptake in carcinoma cells, sensitivity to unlabelled L-alanine; type: cell-based; conditions: epithelial carcinoma cells; 3 mM unlabelled L-alanine; FIGS. 3E-3H
T2 construct: recognized the presence of LAT1 and ASCT2 in all cancer cell lines; endogenous in cells
T2 sequence (Q15758 1-541): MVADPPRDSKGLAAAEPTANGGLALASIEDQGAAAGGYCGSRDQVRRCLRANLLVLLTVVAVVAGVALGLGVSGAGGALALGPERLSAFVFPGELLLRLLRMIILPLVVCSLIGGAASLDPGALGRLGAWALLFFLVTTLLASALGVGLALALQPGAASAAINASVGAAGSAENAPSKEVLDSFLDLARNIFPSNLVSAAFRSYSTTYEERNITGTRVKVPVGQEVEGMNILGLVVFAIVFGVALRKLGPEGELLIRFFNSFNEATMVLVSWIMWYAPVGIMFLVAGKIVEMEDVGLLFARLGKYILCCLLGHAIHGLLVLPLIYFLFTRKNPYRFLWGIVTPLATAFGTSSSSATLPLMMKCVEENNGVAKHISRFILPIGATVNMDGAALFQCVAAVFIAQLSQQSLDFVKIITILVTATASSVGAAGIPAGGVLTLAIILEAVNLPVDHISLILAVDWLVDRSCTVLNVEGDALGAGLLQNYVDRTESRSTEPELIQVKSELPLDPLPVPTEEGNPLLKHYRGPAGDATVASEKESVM
Protocol: as §1, with “the experiment, Cell culture medium” for “the experiment, cell culture medium”, “Hanks' medium (ChCl 140 mM,” for “Hanks' medium (NaCl 140 mM,”, “initiated by the addition of” for “initiated by addition of”, “0.25 μM [^14C]-L-alanine in the” for “0.25 μM [^14C]-L-leucine in the”, “mM unlabeled L-alanin. During preincubation” for “mM unlabeled L-leucine. During preincubation”

Sodium-independent [^14C]-L-leucine (0.25 μM) uptake at initial rate of uptake (1 min) (LAT1)	Sodium-dependent [^14C]-L-alanine (0.25 μM) uptake at initial rate of uptake (1 min) (ASCT2)	Structure (SMILES)
significantly (P<0.001) reduced	–	CC(C)C[C@H](N)C(=O)O [L-leucine]
–	significantly (P<0.01) reduced	C[C@H](N)C(=O)O [L-alanine]
